Data reported in PubChem BioAssay (NCI).
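96-well plates; 48 h exposure; 5 concentrations. Endpoints by linear interpolation between flanking doses. Not reached: highest tested concentration assigned. The concentration for full growth arrest is given as TGI.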

Assays:
Experiment in all cases: NCI-60 cell line screen, 48 h
[1] = test system: 786-0 renal
[2] = test system: A498 renal
[3] = test system: A549 NSCLC
[4] = test system: ACHN renal
[5] = test system: BT-549 breast
[6] = test system: CAKI-1 renal
[7] = test system: COLO 205 colon
[8] = test system: DU-145 prostate
[9] = test system: EKVX NSCLC
[10] = test system: HCC-2998 colon
[11] = test system: HCT-116 colon
[12] = test system: HCT-15 colon
[13] = test system: HL-60(TB) leukemia
[14] = test system: HOP-62 NSCLC
[15] = test system: HOP-92 NSCLC
[16] = test system: HS 578T breast
[17] = test system: HT29 colon
[18] = test system: K-562 leukemia
[19] = test system: KM12 colon
[20] = test system: LOX IMVI melanoma
[21] = test system: M14 melanoma
[22] = test system: MALME-3M melanoma
[23] = test system: MCF7 breast
[24] = test system: MDA-MB-435
[25] = test system: MDA-N
[26] = test system: MOLT-4 leukemia
[27] = test system: NCI-H226 lung
[28] = test system: NCI-H23 lung
[29] = test system: NCI-H460 lung
[30] = test system: NCI-H522 lung
[31] = test system: NCI/ADR-RES ovarian
[32] = test system: OVCAR-3 ovarian
[33] = test system: OVCAR-4 ovarian
[34] = test system: OVCAR-5 ovarian
[35] = test system: OVCAR-8 ovarian
[36] = test system: RPMI-8226 leukemia
[37] = test system: RXF 393 renal
[38] = test system: SF-268 CNS
[39] = test system: SF-295 CNS
[40] = test system: SF-539 CNS
[41] = test system: SK-MEL-28 melanoma
[42] = test system: SK-MEL-5 melanoma
[43] = test system: SK-OV-3 ovarian
[44] = test system: SN12C renal
[45] = test system: SNB-19 CNS
[46] = test system: SR leukemia
[47] = test system: SW-620 colon
[48] = test system: T-47D breast
[49] = test system: TK-10 renal
[50] = test system: UACC-257 melanoma
[51] = test system: UACC-62 melanoma
[52] = test system: UO-31 renal
[53] = test system: CCRF-CEM leukemia
[54] = test system: IGROV1 ovarian
[55] = test system: MDA-MB-231 breast
[56] = test system: PC-3 prostate
[57] = test system: SK-MEL-2 melanoma
[58] = test system: U251 CNS
[59] = test system: SNB-75 CNS

## COc1cc(/C=C2/SC(c3ccccc3)N(c3cccc(NC(C)=O)c3)C2=O)cc(OC)c1OC (stereo not drawn)
[1]
  TGI: > 100 µM
[2]
  TGI: > 100 µM
[3]
  TGI: > 100 µM
[4]
  TGI: > 100 µM
[5]
  TGI: > 100 µM
[6]
  TGI: > 100 µM
[7]
  TGI: > 100 µM
[8]
  TGI: > 100 µM
[9]
  TGI: > 100 µM
[10]
  TGI: > 100 µM
[11]
  TGI: > 100 µM
[12]
  TGI: > 100 µM
[13]
  TGI: > 100 µM
[14]
  TGI: > 100 µM
[15]
  TGI: > 100 µM
[16]
  TGI: > 100 µM
[17]
  TGI: > 100 µM
[18]
  TGI: > 100 µM
[19]
  TGI: > 100 µM
[20]
  TGI: > 100 µM
[21]
  TGI: > 100 µM
[22]
  TGI: > 100 µM
[23]
  TGI: > 100 µM
[24]
  TGI: > 100 µM
[25]
  TGI: > 100 µM
[26]
  TGI: > 100 µM
[27]
  TGI: > 100 µM
[28]
  TGI: > 100 µM
[29]
  TGI: > 100 µM
[30]
  TGI: 73.6 µM
[31]
  TGI: > 100 µM
[32]
  TGI: > 100 µM
[33]
  TGI: > 100 µM
[34]
  TGI: > 100 µM
[35]
  TGI: > 100 µM
[36]
  TGI: > 100 µM
[37]
  TGI: > 100 µM
[38]
  TGI: > 100 µM
[39]
  TGI: > 100 µM
[40]
  TGI: > 100 µM
[41]
  TGI: > 100 µM
[42]
  TGI: > 100 µM
[43]
  TGI: > 100 µM
[44]
  TGI: > 100 µM
[45]
  TGI: > 100 µM
[46]
  TGI: > 100 µM
[47]
  TGI: > 100 µM
[48]
  TGI: > 100 µM
[49]
  TGI: > 100 µM
[50]
  TGI: > 100 µM
[51]
  TGI: > 100 µM
[52]
  TGI: > 100 µM

## CC(C)/C(Cl)=N\OC(=O)Nc1ccc(F)cc1
[1]
  TGI: 9.55 µM
[2]
  TGI: 28.5 µM
[3]
  TGI: 35.9 µM
[4]
  TGI: 7.7 µM
[5]
  TGI: 24.2 µM
[53]
  TGI: 3.62 µM
[7]
  TGI: 4.42 µM
[8]
  TGI: 30.7 µM
[9]
  TGI: 11.3 µM
[10]
  TGI: 32 µM
[11]
  TGI: 22.6 µM
[12]
  TGI: 12.9 µM
[13]
  TGI: 3.72 µM
[14]
  TGI: 33.4 µM
[16]
  TGI: 71.9 µM
[17]
  TGI: 4.6 µM
[54]
  TGI: 31.7 µM
[18]
  TGI: 3.45 µM
[19]
  TGI: 35.7 µM
[20]
  TGI: 5.73 µM
[21]
  TGI: 16.1 µM
[22]
  TGI: 3.91 µM
[23]
  TGI: 14.3 µM
[55]
  TGI: 5.17 µM
[25]
  TGI: 23.2 µM
[26]
  TGI: 4.2 µM
[27]
  TGI: 36.9 µM
[28]
  TGI: 38.4 µM
[29]
  TGI: 36.1 µM
[30]
  TGI: 3.02 µM
[31]
  TGI: > 48.5 µM
[32]
  TGI: 21.6 µM
[34]
  TGI: 30.4 µM
[35]
  TGI: 25.6 µM
[56]
  TGI: 31.4 µM
[36]
  TGI: 4.19 µM
[37]
  TGI: 29.9 µM
[38]
  TGI: 56.1 µM
[39]
  TGI: 27.8 µM
[40]
  TGI: 32.8 µM
[57]
  TGI: 32.8 µM
[41]
  TGI: 11.5 µM
[42]
  TGI: 26.4 µM
[43]
  TGI: 31.7 µM
[44]
  TGI: 16.7 µM
[45]
  TGI: 39.3 µM
[46]
  TGI: 4.33 µM
[47]
  TGI: 3.23 µM
[48]
  TGI: 24.1 µM
[49]
  TGI: 9.06 µM
[58]
  TGI: 29 µM
[50]
  TGI: 28.3 µM
[51]
  TGI: 40 µM
[52]
  TGI: 10.5 µM

## Cc1c(S(=O)(=O)/N=C(\NN)Nc2ccc(Cl)cc2)sc2ccc(Cl)cc12
[1]
  TGI: 31.5 µM
[2]
  TGI: 29.5 µM
[3]
  TGI: 31.6 µM
[4]
  TGI: 30 µM
[5]
  TGI: 30.9 µM
[6]
  TGI: 34.4 µM
[53]
  TGI: > 100 µM
[7]
  TGI: 33.4 µM
[8]
  TGI: 30.9 µM
[9]
  TGI: 27.2 µM
[11]
  TGI: 26.4 µM
[12]
  TGI: 34.4 µM
[13]
  TGI: 90.8 µM
[14]
  TGI: 36.3 µM
[15]
  TGI: 31.4 µM
[16]
  TGI: 59.1 µM
[17]
  TGI: 30.7 µM
[54]
  TGI: 30.4 µM
[18]
  TGI: > 100 µM
[19]
  TGI: 30 µM
[20]
  TGI: 35.1 µM
[21]
  TGI: 34.8 µM
[22]
  TGI: 39.1 µM
[23]
  TGI: 30.2 µM
[55]
  TGI: 32 µM
[25]
  TGI: 29.1 µM
[26]
  TGI: 59.8 µM
[27]
  TGI: 41.6 µM
[28]
  TGI: 35.6 µM
[29]
  TGI: 34.8 µM
[30]
  TGI: 32.5 µM
[31]
  TGI: 40.8 µM
[32]
  TGI: 32 µM
[33]
  TGI: 30.1 µM
[34]
  TGI: 27.9 µM
[35]
  TGI: 34.7 µM
[56]
  TGI: 29 µM
[36]
  TGI: > 100 µM
[37]
  TGI: 23.6 µM
[38]
  TGI: 33.8 µM
[39]
  TGI: 33.6 µM
[40]
  TGI: 31.5 µM
[57]
  TGI: 30.5 µM
[41]
  TGI: 44.1 µM
[42]
  TGI: 33.4 µM
[43]
  TGI: 35.9 µM
[44]
  TGI: 30.9 µM
[45]
  TGI: 38 µM
[59]
  TGI: 28.4 µM
[46]
  TGI: 65.1 µM
[47]
  TGI: 71.2 µM
[48]
  TGI: 24 µM
[49]
  TGI: 31.8 µM
[58]
  TGI: 30.4 µM
[50]
  TGI: 33.8 µM
[51]
  TGI: 27.6 µM
[52]
  TGI: 33.1 µM
